These results are taken from patent US20250215013A1, “SUBSTITUTED TRICYCLIC COMPOUNDS AS PARP INHIBITORS AND THE USE THEREOF” (IMPACT THERAPEUTICS (SHANGHAI), INC., priority 2022, published 2025).

One assay concerns MDA-MB-436 cells. Kind of assay: Growth inhibition assay against BRCA mutant human breast cancer MDA-MB-436 cell line (CCK-8). The format is cell-based. Conditions: Homo sapiens, MDA-MB-436, […], proliferation of MDA-MB-436 cells, 7 days.
The target in assay [1] is recombinant poly(ADP-ribose) polymerase 1 (PARP1) (Homo sapiens (Human), UniProt P09874). Description: biochemical.
Assay [2] addresses recombinant poly(ADP-ribose) polymerase 2 (PARP2) (Homo sapiens, UniProt Q9UGN5). Kind of assay: PARP2 chemiluminescent assay. Type of assay: biochemical. The conditions noted are these: inhibition of PARP2 enzyme activity, chemiluminescence.
The target of the next assay is PDE3A (Homo sapiens (Human), UniProt Q14432). Kind of assay: PDE3A fluorescence polarization (FP) assay. Type of assay: biochemical. The conditions noted are these: PDE3A enzyme activity, FAM-cAMP substrate. In general terms: Polarisation of emitted light reports the rotation of a fluorescent probe.

pIC50: −log10 of the molar value. Where only a bound is given, the exact number is not on record here.

Sequence of recombinant poly(ADP-ribose) polymerase 2 (PARP2) (Q9UGN5 whole entry, looked up): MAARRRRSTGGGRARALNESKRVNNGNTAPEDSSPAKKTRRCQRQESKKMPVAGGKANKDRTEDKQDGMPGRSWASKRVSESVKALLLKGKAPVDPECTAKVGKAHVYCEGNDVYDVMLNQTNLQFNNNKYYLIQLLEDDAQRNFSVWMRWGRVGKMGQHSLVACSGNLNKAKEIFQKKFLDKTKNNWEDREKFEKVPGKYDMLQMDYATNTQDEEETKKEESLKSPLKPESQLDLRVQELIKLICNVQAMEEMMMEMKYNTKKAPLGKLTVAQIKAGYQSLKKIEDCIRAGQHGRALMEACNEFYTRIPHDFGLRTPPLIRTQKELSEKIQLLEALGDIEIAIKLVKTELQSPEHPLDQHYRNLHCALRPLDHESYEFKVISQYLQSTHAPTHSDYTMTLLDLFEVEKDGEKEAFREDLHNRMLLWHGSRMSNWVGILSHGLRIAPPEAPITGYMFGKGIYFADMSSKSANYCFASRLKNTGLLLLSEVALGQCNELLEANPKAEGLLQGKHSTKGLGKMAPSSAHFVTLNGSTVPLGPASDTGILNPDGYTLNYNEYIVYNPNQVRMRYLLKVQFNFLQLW
Sequence of recombinant poly(ADP-ribose) polymerase 1 (PARP1) (P09874 whole entry): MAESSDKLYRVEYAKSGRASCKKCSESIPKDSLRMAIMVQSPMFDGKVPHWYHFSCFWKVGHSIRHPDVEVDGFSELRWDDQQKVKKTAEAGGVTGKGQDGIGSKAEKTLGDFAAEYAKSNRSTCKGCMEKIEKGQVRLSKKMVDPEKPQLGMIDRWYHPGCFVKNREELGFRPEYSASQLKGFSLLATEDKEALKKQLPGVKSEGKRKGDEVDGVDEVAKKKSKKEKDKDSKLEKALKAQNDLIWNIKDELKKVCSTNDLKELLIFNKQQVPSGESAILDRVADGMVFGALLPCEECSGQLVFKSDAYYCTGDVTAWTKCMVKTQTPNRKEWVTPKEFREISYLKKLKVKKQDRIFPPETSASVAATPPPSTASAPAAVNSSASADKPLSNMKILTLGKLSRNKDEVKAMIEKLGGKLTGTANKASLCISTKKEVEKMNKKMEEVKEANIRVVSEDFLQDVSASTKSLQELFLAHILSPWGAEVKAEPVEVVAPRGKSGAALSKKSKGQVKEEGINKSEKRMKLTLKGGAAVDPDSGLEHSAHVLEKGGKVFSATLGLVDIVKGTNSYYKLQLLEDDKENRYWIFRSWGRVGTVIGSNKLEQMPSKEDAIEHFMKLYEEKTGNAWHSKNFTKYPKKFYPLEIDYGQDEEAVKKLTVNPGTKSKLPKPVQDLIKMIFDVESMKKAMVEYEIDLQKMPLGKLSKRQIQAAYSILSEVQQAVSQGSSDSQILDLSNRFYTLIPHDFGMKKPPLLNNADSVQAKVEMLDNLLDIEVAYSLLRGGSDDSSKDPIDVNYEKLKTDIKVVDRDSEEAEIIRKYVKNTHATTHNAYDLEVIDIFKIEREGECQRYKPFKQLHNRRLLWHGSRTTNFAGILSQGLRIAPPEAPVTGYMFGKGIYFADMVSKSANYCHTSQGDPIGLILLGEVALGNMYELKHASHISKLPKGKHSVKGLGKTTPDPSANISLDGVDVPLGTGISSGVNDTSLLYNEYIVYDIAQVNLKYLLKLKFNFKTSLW
Sequence of PDE3A (Q14432 whole entry): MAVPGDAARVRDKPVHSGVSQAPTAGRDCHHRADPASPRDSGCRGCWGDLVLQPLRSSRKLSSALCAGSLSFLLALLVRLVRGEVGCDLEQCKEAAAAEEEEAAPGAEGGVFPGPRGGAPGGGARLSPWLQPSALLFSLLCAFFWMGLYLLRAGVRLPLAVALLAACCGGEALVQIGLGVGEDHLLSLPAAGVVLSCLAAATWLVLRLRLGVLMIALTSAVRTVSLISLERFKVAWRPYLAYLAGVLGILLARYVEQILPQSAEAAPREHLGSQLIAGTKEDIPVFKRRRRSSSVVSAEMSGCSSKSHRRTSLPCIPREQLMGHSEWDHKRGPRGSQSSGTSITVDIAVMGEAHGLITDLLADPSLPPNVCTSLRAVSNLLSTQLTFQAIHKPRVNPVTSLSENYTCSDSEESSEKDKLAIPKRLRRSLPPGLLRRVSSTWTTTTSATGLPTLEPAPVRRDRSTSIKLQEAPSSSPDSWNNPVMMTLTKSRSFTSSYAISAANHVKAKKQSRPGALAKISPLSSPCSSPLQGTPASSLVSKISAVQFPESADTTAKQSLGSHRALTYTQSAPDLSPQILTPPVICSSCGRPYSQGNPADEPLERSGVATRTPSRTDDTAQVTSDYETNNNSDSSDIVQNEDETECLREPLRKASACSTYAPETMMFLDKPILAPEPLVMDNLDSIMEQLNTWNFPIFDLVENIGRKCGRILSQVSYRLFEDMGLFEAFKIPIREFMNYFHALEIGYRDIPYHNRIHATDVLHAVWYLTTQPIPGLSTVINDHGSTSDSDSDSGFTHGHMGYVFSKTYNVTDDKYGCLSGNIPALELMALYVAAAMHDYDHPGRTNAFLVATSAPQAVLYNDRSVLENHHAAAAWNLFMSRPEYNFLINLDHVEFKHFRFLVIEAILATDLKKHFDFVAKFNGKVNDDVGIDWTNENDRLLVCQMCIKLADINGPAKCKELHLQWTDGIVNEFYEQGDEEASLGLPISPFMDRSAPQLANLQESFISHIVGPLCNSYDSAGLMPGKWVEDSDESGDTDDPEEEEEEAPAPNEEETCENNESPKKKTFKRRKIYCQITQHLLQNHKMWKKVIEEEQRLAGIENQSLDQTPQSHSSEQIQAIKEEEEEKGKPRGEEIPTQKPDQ
Description for PDE3A: A PDE3A fluorescence polarization (FP) assay in a multi-step format was performed using black, round bottom 384-well plates (Corning, 4514). The testing compounds were serially diluted from stock solutions to 11 concentrations with a 3-fold dilution factor using DMSO. Fifty nl of compound dilutions was mixed with 5 μl of reaction buffer (10 mM Tris-HCl, pH 7.2, 10 mM MgCl2, 0.05% NaN3, 0.1% phosphate-free BSA) containing 0.2 μM FAM-cAMP (BPS, 60200) and 2 nM PDE3A (Sino Biological, 11908-H20B1) enzyme, and incubated for 60 min at 25° C. Afterwards, 15 μl binding agent mixture (Molecular Devices, R8124) was added to each well and the plate was incubated for 60 min at 25° C. The plate was loaded to a BMG PHERAstar FSX to read Fluorescence Polarization (FP) values at a setting of: Ex: 485 nm and Em: 520 nm. Emission light intensity with polarizers parallel (Emi) and emission light intensity with polarizers perpendicular (Emi) were recorded. The Polarization (mP) values were calculated using the following formula: mP=(SignalEml−SignalEm⊥)/(SignalEml+SignalEm⊥).
• 1) The inhibition % of a compound dose is calculated as:
[formula] • wherein mPMin and mPMax refer to the polarization readings in the condition of substrate only and substrate+enzyme, respectively. • 2) The IC50 values were calculated from non-linear curve fitting using following regression equation using a commercial curve fitting software GraphPad Prism 9.2.0.
[formula] • wherein, X refers to Log of compound concentration and Y refers to % Inhibition.

Regarding `CNC(=O)c1ccc(C2CCN(Cc3ccc4c([nH]c(=O)c5occc54)c3F)CC2)c(F)n1` [Example 109, 7-((4-(2-fluoro-6-(methylcarbamoyl)pyridin-3-yl)piperidin-1-yl)methyl)-6-fluorofuro[2,3-c]quinolin-4(5H)-one], the pIC50 is 8.29 in the assay with MDA-MB-436 cells and 9.08 in assay [1]. In addition, the IC50 in assay [2] was determined as 5370 nM.

In the case of `O=C(NCC(F)F)c1ccc(N2CCN(Cc3ccc4c([nH]c(=O)c5occc54)c3F)CC2)c(F)n1` [Example 147, 6-fluoro-7-((4-(2-fluoro-6-(2,2-difluoroethylcarbamoyl)pyridin-3-yl)piperazin-1-yl)methyl)furo[2,3-c]quinolin-4(5H)-one], the pIC50 is 4.96 at PDE3A, 8.70 in the assay on MDA-MB-436 cells and 9.25 in assay [1]. In assay [2], the IC50 is 2400 nM.

On to `CNC(=O)c1ccc(C2=CCN(Cc3ccc4c([nH]c(=O)c5c(C)cnn54)c3F)CC2)cn1` [Example 152, 6-fluoro-3-methyl-7-((6-methylcarbamoyl-3′,6′-dihydro-[3,4′-bipyridin]-1′(2′H)-yl)methyl)pyrazolo[1,5-a]quinoxalin-4(5H)-one], for which the pIC50 against PDE3A was < 4.60; in the assay with MDA-MB-436 cells it was 7.71. Further, in assay [2], the IC50 was > 1110 nM.

In general, pIC50 refers to the IC50 on a negative log10 scale, so that one unit is a factor of ten. In general, IC50 refers to the concentration that gives 50% inhibition.
